According to ChEMBL document CHEMBL1201862, “PubChem BioAssay data set” (2004):
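Briefly, cells in 96-well plates were exposed to five compound concentrations for 48 h, and endpoints were estimated by linear interpolation. Abbreviation: GI50, concentration required for 50% inhibition of growth.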 Calls of active or inactive are those of the source. No stated cut-off is given here; in the data, active = GI50 up to about 1.1 µM and inactive = higher.

Columns and labels:
Assay in all cases: NCI-60 cell line screen, 48 h
[1] = system: MCF7
[2] = system: MOLT-4
[3] = system: MDA-MB-435
[4] = system: HOP-62
[5] = system: SNB-19
[6] = system: RPMI-8226
[7] = system: NCI/ADR-RES
[8] = system: SF-268
[9] = system: ACHN
[10] = system: NCI-H522
[11] = system: A549
[12] = system: MDA-MB-231
[13] = system: 786-0
[14] = system: SNB-75
[15] = system: NCI-H23
[16] = system: HT-29
[17] = system: EKVX
[18] = system: HCT-116
[19] = system: CCRF-CEM
[20] = system: HL-60

SMILES: O=C(CCN1CCCCC1)c1csc2ccccc12
- GI50 [1]: 20 µM (inactive)
- GI50 [2]: 61.2 µM (inactive)
- GI50 [3]: > 100 µM (inactive)
- GI50 [4]: > 100 µM (inactive)
- GI50 [5]: > 100 µM (inactive)
- GI50 [6]: 10.1 µM (inactive)
- GI50 [7]: > 100 µM (inactive)
- GI50 [8]: > 100 µM (inactive)
- GI50 [9]: > 100 µM (inactive)
- GI50 [10]: > 100 µM (inactive)
- GI50 [11]: > 100 µM (inactive)
- GI50 [12]: > 100 µM (inactive)
- GI50 [13]: 50.1 µM (inactive)
- GI50 [14]: > 100 µM (inactive)
- GI50 [15]: > 100 µM (inactive)
- GI50 [16]: > 100 µM (inactive)
- GI50 [17]: > 100 µM (inactive)
- GI50 [18]: > 100 µM (inactive)

SMILES: CCO/C(Cc1ccc(Cl)cc1)=N/NC(N)=S
- GI50 [1]: > 100 µM (inactive)
- GI50 [2]: > 100 µM (inactive)
- GI50 [3]: > 100 µM (inactive)
- GI50 [4]: > 100 µM (inactive)
- GI50 [5]: > 100 µM (inactive)
- GI50 [7]: > 100 µM (inactive)
- GI50 [9]: > 100 µM (inactive)
- GI50 [11]: > 100 µM (inactive)
- GI50 [19]: > 100 µM (inactive)
- GI50 [12]: > 100 µM (inactive)
- GI50 [13]: > 100 µM (inactive)
- GI50 [14]: > 100 µM (inactive)
- GI50 [15]: > 100 µM (inactive)
- GI50 [16]: > 100 µM (inactive)
- GI50 [17]: > 100 µM (inactive)
- GI50 [18]: > 100 µM (inactive)

SMILES: CC(=O)OC[C@@H](OC(C)=O)[C@H](OC(C)=O)[C@@H]1OC(C)(C)O[C@@H]1C1SCCCS1
- GI50 [1]: > 100 µM (inactive)
- GI50 [2]: > 100 µM (inactive)
- GI50 [3]: > 100 µM (inactive)
- GI50 [4]: > 100 µM (inactive)
- GI50 [5]: > 100 µM (inactive)
- GI50 [6]: > 100 µM (inactive)
- GI50 [8]: > 100 µM (inactive)
- GI50 [9]: > 100 µM (inactive)
- GI50 [10]: > 100 µM (inactive)
- GI50 [11]: > 100 µM (inactive)
- GI50 [19]: > 100 µM (inactive)
- GI50 [12]: > 100 µM (inactive)
- GI50 [13]: > 100 µM (inactive)
- GI50 [14]: > 100 µM (inactive)
- GI50 [15]: > 100 µM (inactive)
- GI50 [17]: > 100 µM (inactive)
- GI50 [18]: > 100 µM (inactive)

SMILES: CC(C)(C)OC(=O)N(O)CCCn1cnc2c(N)ncnc21
- GI50 [1]: > 100 µM (inactive)
- GI50 [2]: > 100 µM (inactive)
- GI50 [3]: > 100 µM (inactive)
- GI50 [4]: > 100 µM (inactive)
- GI50 [5]: > 100 µM (inactive)
- GI50 [6]: > 100 µM (inactive)
- GI50 [7]: > 100 µM (inactive)
- GI50 [8]: > 100 µM (inactive)
- GI50 [9]: > 100 µM (inactive)
- GI50 [10]: > 100 µM (inactive)
- GI50 [11]: > 100 µM (inactive)
- GI50 [19]: > 100 µM (inactive)
- GI50 [12]: > 100 µM (inactive)
- GI50 [13]: > 100 µM (inactive)
- GI50 [14]: > 100 µM (inactive)
- GI50 [15]: > 100 µM (inactive)
- GI50 [16]: > 100 µM (inactive)
- GI50 [17]: > 100 µM (inactive)
- GI50 [18]: > 100 µM (inactive)

SMILES: COc1ccc(/N=N/c2ccc3oc(=O)c(C(=O)Nc4ccc(Cl)cc4)cc3c2)cc1
- GI50 [1]: 3.17 µM (inactive)
- GI50 [2]: 7.46 µM (inactive)
- GI50 [3]: > 10 µM (inactive)
- GI50 [4]: > 10 µM (inactive)
- GI50 [6]: > 10 µM (inactive)
- GI50 [7]: 5.5 µM (inactive)
- GI50 [8]: 3.72 µM (inactive)
- GI50 [9]: > 10 µM (inactive)
- GI50 [10]: > 10 µM (inactive)
- GI50 [12]: 6.25 µM (inactive)
- GI50 [13]: > 10 µM (inactive)
- GI50 [14]: > 10 µM (inactive)
- GI50 [15]: 6.38 µM (inactive)
- GI50 [16]: > 10 µM (inactive)
- GI50 [17]: 6.15 µM (inactive)

SMILES: OCCc1ccsc1-c1sc(-c2cc(CCO)c(-c3sccc3CCO)s2)cc1CCO
- GI50 [1]: 15.7 µM (inactive)
- GI50 [2]: 7.89 µM (inactive)
- GI50 [3]: 17.7 µM (inactive)
- GI50 [4]: 14.5 µM (inactive)
- GI50 [5]: 13.6 µM (inactive)
- GI50 [6]: 5.05 µM (inactive)
- GI50 [7]: 20.2 µM (inactive)
- GI50 [8]: 5.42 µM (inactive)
- GI50 [9]: 15.8 µM (inactive)
- GI50 [10]: 12.2 µM (inactive)
- GI50 [11]: 29 µM (inactive)
- GI50 [19]: 16.4 µM (inactive)
- GI50 [12]: 12.2 µM (inactive)
- GI50 [13]: 12 µM (inactive)
- GI50 [15]: 15.8 µM (inactive)
- GI50 [17]: 17.1 µM (inactive)
- GI50 [18]: 16.6 µM (inactive)

SMILES: COc1cc(Cc2cnc(N)nc2N)cc(OC)c1OCCCNc1ccc([N+](=O)[O-])cc1
- GI50 [1]: 12.1 µM (inactive)
- GI50 [2]: 2.72 µM (inactive)
- GI50 [3]: 13.8 µM (inactive)
- GI50 [4]: 13.6 µM (inactive)
- GI50 [5]: 12.8 µM (inactive)
- GI50 [7]: 18.6 µM (inactive)
- GI50 [8]: 22.9 µM (inactive)
- GI50 [9]: 18 µM (inactive)
- GI50 [10]: 13 µM (inactive)
- GI50 [11]: 13 µM (inactive)
- GI50 [19]: 9.35 µM (inactive)
- GI50 [12]: 12.9 µM (inactive)
- GI50 [13]: 12.4 µM (inactive)
- GI50 [14]: 16.2 µM (inactive)
- GI50 [15]: 16 µM (inactive)
- GI50 [16]: 2.92 µM (inactive)
- GI50 [17]: 15.3 µM (inactive)
- GI50 [18]: 12.6 µM (inactive)

SMILES: O=C1C(=Cc2ccc(O)cc2)N=C(c2ccccc2)N1n1c(-c2ccccc2)nc2ccccc2c1=O
- GI50 [1]: 30.9 µM (inactive)
- GI50 [2]: 78.7 µM (inactive)
- GI50 [3]: > 100 µM (inactive)
- GI50 [4]: > 100 µM (inactive)
- GI50 [5]: > 100 µM (inactive)
- GI50 [6]: 46.1 µM (inactive)
- GI50 [8]: > 100 µM (inactive)
- GI50 [10]: 50 µM (inactive)
- GI50 [11]: > 100 µM (inactive)
- GI50 [19]: 32 µM (inactive)
- GI50 [12]: 76.9 µM (inactive)
- GI50 [13]: > 100 µM (inactive)
- GI50 [14]: > 100 µM (inactive)
- GI50 [15]: 71.6 µM (inactive)
- GI50 [16]: 72.8 µM (inactive)
- GI50 [17]: > 100 µM (inactive)
- GI50 [18]: > 100 µM (inactive)
- GI50 [20]: 40.6 µM (inactive)

SMILES: Cc1ccccc1[P+](C)(c1ccccc1C)c1ccccc1C
- GI50 [1]: 14 µM (inactive)
- GI50 [3]: 4.54 µM (inactive)
- GI50 [4]: 23.9 µM (inactive)
- GI50 [5]: 8.69 µM (inactive)
- GI50 [6]: 1.21 µM (inactive)
- GI50 [7]: 25.5 µM (inactive)
- GI50 [8]: 34.8 µM (inactive)
- GI50 [9]: 15.8 µM (inactive)
- GI50 [10]: 5.24 µM (inactive)
- GI50 [11]: 13.1 µM (inactive)
- GI50 [19]: 0.0333 µM (active)
- GI50 [12]: 12.6 µM (inactive)
- GI50 [13]: 24.8 µM (inactive)
- GI50 [14]: 12.6 µM (inactive)
- GI50 [15]: 10.3 µM (inactive)
- GI50 [16]: 5.85 µM (inactive)
- GI50 [17]: 5.07 µM (inactive)
- GI50 [18]: 6.79 µM (inactive)

SMILES: Cc1cc(C)nc(NC(=S)Nc2cccc(Cl)c2)c1
- GI50 [2]: > 100 µM (inactive)
- GI50 [3]: > 100 µM (inactive)
- GI50 [4]: > 75.7 µM (inactive)
- GI50 [5]: > 100 µM (inactive)
- GI50 [6]: > 100 µM (inactive)
- GI50 [7]: > 100 µM (inactive)
- GI50 [8]: > 100 µM (inactive)
- GI50 [9]: 28.1 µM (inactive)
- GI50 [11]: 20.8 µM (inactive)
- GI50 [19]: > 20 µM (inactive)
- GI50 [12]: > 100 µM (inactive)
- GI50 [13]: > 48.5 µM (inactive)
- GI50 [14]: > 100 µM (inactive)
- GI50 [15]: > 100 µM (inactive)
- GI50 [16]: > 83.4 µM (inactive)
- GI50 [17]: > 100 µM (inactive)
- GI50 [18]: > 100 µM (inactive)
- GI50 [20]: > 100 µM (inactive)

SMILES: O=S(=O)(O)c1ccc2c(/N=N\c3ccc(F)cc3)c(O)c(S(=O)(=O)O)cc2c1
- GI50 [2]: > 100 µM (inactive)
- GI50 [3]: > 100 µM (inactive)
- GI50 [4]: > 100 µM (inactive)
- GI50 [5]: > 100 µM (inactive)
- GI50 [6]: > 100 µM (inactive)
- GI50 [7]: > 100 µM (inactive)
- GI50 [8]: > 100 µM (inactive)
- GI50 [9]: > 100 µM (inactive)
- GI50 [10]: > 100 µM (inactive)
- GI50 [11]: > 100 µM (inactive)
- GI50 [19]: > 100 µM (inactive)
- GI50 [12]: > 100 µM (inactive)
- GI50 [13]: > 100 µM (inactive)
- GI50 [14]: > 100 µM (inactive)
- GI50 [15]: > 100 µM (inactive)
- GI50 [16]: > 100 µM (inactive)
- GI50 [17]: > 100 µM (inactive)
- GI50 [18]: > 100 µM (inactive)
- GI50 [20]: < 0.01 µM (active)
